# Laboratory results published in US8653238B2, “Compositions and methods for transport of molecules with enhanced release properties across biological barriers” (The Board of Trustees of the Leland Stanford Junior …, priority 2006, dated 2014).
# Where “and” joins values, the source holds several entries; their conditions need not be identical. Equal values may be shown once. Non-standard residues stand in square brackets, D forms with d. Residues, ends and D or L forms follow the SMILES beside them. *: point of attachment. Paclitaxel(2'-OCO(CH2)3S) = CC(=O)O[C@H]1C(=O)[C@@]2(C)[C@H]([C@H](OC(=O)c3ccccc3)[C@]3(O)C[C@H](OC(=O)[C@H](OC(=O)CCCS*)[C@@H](NC(=O)c4ccccc4)c4ccccc4)C(C)=C1C3(C)C)[C@]1(OC(C)=O)CO[C@@H]1C[C@@H]2O; X1 = O=C(OCCCS*)Oc1ccc2nc(C3=N[C@@H](C(=O)O)CS3)sc2c1
# Tests used:
# OVCA429TP = assay: cells
# Experimental: (§1) FIG. 12 depicts an assay for GI50 (nM) of 429 Ovarian Cancer Lines, 20 min pulse with indicated compounds. The cells were pulsed for 20 min, washed (×2) and incubated for 72 hr in fresh media. For each compound, three bars are depicted, for 429 cells, 429 T cells, and 429 TP cells (from left to right).
# (§2) The cells were pulsed with conjugates administered in PBS (pH=7.4) and Taxol (administered in DMSO) for 20 min. Then the solution was removed, the cells were washed twice and incubated in fresh media for 72 hr. The presence of live cells were measured based on the standard MTS assay.
# OVCA429T = assay: cells
# Experimental: as §1, §2
# OVCA429 = assay: cells
# Experimental: as §1, §2
# [1] = test system: PC3M-luc prostate cancer cell line stably transfected with luciferase; assay: Cellular assay for luciferin release from conjugates (Example 6); format: cell-based
# Experimental: The PC3M-luc prostate tumor cell line (Jenkins et al., Clin. Exp. Metastasis 20:733 (2003)), was plated at 60,000 cells per well in 96 well, flat bottomed plates twelve hours prior to the assay. […] The cells were washed to remove extracellular luciferin or conjugate, resuspended with the appropriate buffer, and the resultant luminescence measured using a charged coupled device camera and Living Image software (IVIS200, Xenogen Corp., Alameda, Calif.) (see Cao et al., Proc. Natl. Acad. Sci. U.S.A. 101:221 (2004)).
# [2] = test system: transgenic (FVB-luc+) mice; assay: Bioluminescence after intradermal injection into luciferase transgenic mice; format: in vivo
# FVB-luc+ mice skin = assay: Bioluminescence after topical application to skin of luciferase transgenic mice (Example 7); format: in vivo
# Source text: For imaging assays to assess skin transport, hair was removed from the animals by clipping with a large hair clipper on the right flank. Subsequently, Nair® (NAIR is a registered trademark of Church & Dwight Co., Inc., Princeton N.J., USA for a depilatory cream) was applied for 90 seconds, wiped off, and the animals were washed well with wet paper towels and dried. Five days were allowed for stratum corneum regrowth before the mice were used for imaging.
# Formulations for topical application of conjugates were prepared as follows. […] Luminescence was observed over approximately 60 minutes.
# In vivo bioluminescence imaging was carried out as follows. Animals were imaged in a dark chamber using a cooled CCD camera (IVIS100 Xenongen Corp.) as previously described 45 and the data were analyzed using LivingImage software (Xenogen Corp.). Data are expressed as photons/ster radian/sec for each region of interest such that the data are not dependent on camera settings, chamber geometry or integration time.
# The most reproducible method to evaluate the relative performance of transporters and linkers was to apply a single drop of a solution of each conjugate to the flank of anesthetized FVB-luc+ mice. The drop was allowed to remain in contact with the skin for the duration of the assay during which luminescence from the animal was monitored. […]
# physchem = details: buffer, pH 7.4
# Experimental: The stabilities of the conjugates were assayed by measuring their decomposition when incubated in HEPES buffered saline (HBS, pH 7.4) at 37° C. using analytical HPLC. […] At appropriate time points 20 μl of the solutions were removed and analyzed by reverse phase HPLC. The percent decomposition was calculated from the integrated peak areas of the conjugate, the internal standard, and the various decomposition products.
# [3] = 429TP cells (Taxol resistant, unknown mechanism), 20 min pulse, 72 hr
# [4] = 429T cells (Taxol resistant, PGP overexpression), 20 min pulse, 72 hr
# [5] = 429 cells, 20 min pulse, washed ×2, 72 hr in fresh media, conjugates in PBS pH 7.4, taxol in DMSO
smiles,measurement,setting,value
"CC(=O)N[C@H](CSSCCCC(=O)O[C@H]1C[C@H]2OC[C@@]2(OC(C)=O)[C@H]2[C@H](OC(=O)c3ccccc3)[C@]3(O)C[C@H](OC(=O)[C@H](O)[C@@H](NC(=O)c4ccccc4)c4ccccc4)C(C)=C([C@@H](OC(C)=O)C(=O)[C@]12C)C3(C)C)C(=O)N[C@H](CCCNC(=N)N)C(=O)N[C@H](CCCNC(=N)N)C(=O)N[C@H](CCCNC(=N)N)C(=O)N[C@H](CCCNC(=N)N)C(=O)N[C@H](CCCNC(=N)N)C(=O)N[C@H](CCCNC(=N)N)C(=O)N[C@H](CCCNC(=N)N)C(=O)N[C@H](CCCNC(=N)N)C(N)=O [Compound 67, Taxol C7 Octaarginine Conjugate 67]",GI50,OVCA429TP; [3],93 nM
same,GI50,OVCA429T; [4],225 nM
same,GI50,OVCA429; [5],125 nM
"CC(=O)N[C@H](CSSCCCC(=O)O[C@@H](C(=O)O[C@H]1C[C@@]2(O)[C@@H](OC(=O)c3ccccc3)[C@@H]3[C@]4(OC(C)=O)CO[C@@H]4C[C@H](O)[C@@]3(C)C(=O)[C@H](OC(C)=O)C(=C1C)C2(C)C)[C@@H](NC(=O)c1ccccc1)c1ccccc1)C(=O)N[C@H](CCCNC(=N)N)C(=O)N[C@H](CCCNC(=N)N)C(=O)N[C@H](CCCNC(=N)N)C(=O)N[C@H](CCCNC(=N)N)C(=O)N[C@H](CCCNC(=N)N)C(=O)N[C@H](CCCNC(=N)N)C(=O)N[C@H](CCCNC(=N)N)C(=O)N[C@H](CCCNC(=N)N)C(N)=O [Compound 62, Taxol C2′ Octaarginine Conjugate 62] (Ac-[dC](Paclitaxel(2'-OCO(CH2)3S))[dR][dR][dR][dR][dR][dR][dR][dR]-NH2)",GI50,OVCA429TP; [3],101 nM
same,GI50,OVCA429T; [4],420 nM
same,GI50,OVCA429; [5],12 nM
CC(=O)N[C@H](CSSCCCOC(=O)Oc1ccc2nc(C3=N[C@@H](C(=O)O)CS3)sc2c1)C(=O)N[C@H](CCCNC(=N)N)C(=O)N[C@H](CCCNC(=N)N)C(=O)N[C@H](CCCNC(=N)N)C(=O)N[C@H](CCCNC(=N)N)C(=O)N[C@H](CCCNC(=N)N)C(=O)N[C@H](CCCNC(=N)N)C(=O)N[C@H](CCCNC(=N)N)C(=O)N[C@H](CCCNC(=N)N)C(N)=O [5b] (Ac-[dC](X1)[dR][dR][dR][dR][dR][dR][dR][dR]-NH2),time for luminescent signal to reach background,"[1]; 1 minute pulse, HBS pH 7.4",approximately 1000 seconds
same,time over which signal increases after injection,[2]; intradermal injection,20 min
same,area under the curve of bioluminescence,"[2]; intradermal injection of 100 uL of 200 nM in HBS pH 7.4, two different animals",2.54 ×10^10 photons and 2.01 ×10^10 photons
same,theoretical amount of luciferin in the injected sample accounted for,"[2]; intradermal injection, photons emitted in 60 minutes × 400 molecules per photon",Approximately 80%
same,amount of luciferin released in one hour,FVB-luc+ mice skin; 15 μL of 5 mM in 75% PEG 400/25% 200 mM NaOAc pH 6.0,3.62e-12 mol
same,cumulative intradermal concentration of luciferin over one hour,"FVB-luc+ mice skin; 15 μL of 5 mM in 75% PEG 400/25% 200 mM NaOAc pH 6.0, skin thickness 0.69 mm",47 nM
same,half-life at 0.8 mg/ml,physchem,11 h
CC(=O)N[C@H](CSSCCOC(=O)Oc1ccc2nc(C3=N[C@@H](C(=O)O)CS3)sc2c1)C(=O)N[C@H](CCCNC(=N)N)C(=O)N[C@H](CCCNC(=N)N)C(=O)N[C@H](CCCNC(=N)N)C(=O)N[C@H](CCCNC(=N)N)C(=O)N[C@H](CCCNC(=N)N)C(=O)N[C@H](CCCNC(=N)N)C(=O)N[C@H](CCCNC(=N)N)C(=O)N[C@H](CCCNC(=N)N)C(N)=O [5a],half-life at 0.8 mg/ml,physchem,3 h
"CC(=O)O[C@H]1C(=O)[C@@]2(C)[C@H]([C@H](OC(=O)c3ccccc3)[C@]3(O)C[C@H](OC(=O)[C@H](O)[C@@H](NC(=O)c4ccccc4)c4ccccc4)C(C)=C1C3(C)C)[C@]1(OC(C)=O)CO[C@@H]1C[C@@H]2O [taxol, paclitaxel, reference compound]",GI50,OVCA429TP; Homo sapiens,8480 nM
same,GI50,OVCA429T; Homo sapiens,15800 nM
same,GI50,"OVCA429; Homo sapiens, OVCA429, pH 7.4",147 nM
"O=C(O)[C@H]1CSC(c2nc3ccc(O)cc3s2)=N1 [luciferin, reference compound]",change of luminescence in K+HBS,"[1]; K+HBS versus HBS, 25 μM luciferin",increased slightly
same,area under the curve relative to 200 nM dose,"[2]; mouse, in vivo",10.24%
same,area under the curve of bioluminescence,"[2]; mouse, in vivo, pH 7.4",3.02×10^10 photons and 3.11×10^9 photons
